25 compounds from PMC7407491, “The Addition of a Synthetic LPS-Targeting Domain Improves Serum Stability While Maintaining Antimicrobial, Antibiofilm, and Cell Stimulating Properties of an Antimicrobial Peptide” (Biomolecules, 2020) can be followed below.

Common to all, as to assay: Antibiogram of clinical isolate
Common to all, as to assay type: cell-based
What all share (parameters): key to Interpretation: R represents “resistant”; I represents “intermediate”; S represents “sensitive”

Test [1] has as its system Methicillin Resistant Staphylococcus aureus. Conditions: veterinary clinical isolate. The protocol: (§1) Veterinary clinical isolates, including Salmonella typhimurium, multi-drug resistant Escherichia coli, methicillin-resistant Staphylococcus aureus (MRSA), and methicillin-resistant Staphylococcus pseudointermedius (MRSP), were kindly provided by Dr. H. Cai (Department of Pathobiology, University of Guelph, ON, Canada). An antibiogram for these strains is available in the supplementary text (Table S1). Gram-negative strains were cultured in Luria−Bertani (LB) broth. Gram-positive strains were cultured in Tryptic soy broth (TSB). Both cultures were grown under aerobic conditions at 37 °C.
(§2) 1 Where R represents “resistant”, I represents “intermediate” and S represents “sensitive”.
(§3) 2 MIC represents the minimal inhibitory concentration of the antibiotic in mcg/mL.
(§4) 3 mm represents the diameter zone of inhibition against antibiotic disc.

The next test has as its system Escherichia coli. The following applies: multi-drug resistant veterinary clinical isolate. As to the method:
as §1, §2, §3, §4

Test [2] deals with Methicillin Resistant Staphylococcus pseudointermedius. The following applies: veterinary clinical isolate. As to the method: as §1, §2, §3, §4
The mark [3] stands for this setting: Staphylococcus aureus, read-out: MIC.
Setting [4] is: Escherichia coli, read-out: MIC.

Values after ≈ are worked out from the molar mass of the structure shown. Like-named read-outs stand apart in the source and are kept apart here. Where only a bound is given, the exact number is not on record here.

Broadly, the MIC is the lowest concentration that inhibits growth of the organism. For the compound `NCC[C@H](O)C(=O)N[C@@H]1C[C@H](N)[C@@H](O[C@H]2O[C@H](CN)[C@@H](O)[C@H](O)[C@H]2O)[C@H](O)[C@H]1O[C@H]1O[C@H](CO)[C@@H](O)[C@H](N)[C@H]1O` [Amikacin], the MIC in test [1] (setting [3]) worked out at 9.5 µg/mL (≈ 16.2 µM). In test [1], the Interpretation entry is on record as “S” and the “diameter zone of inhibition against antibiotic disc” value (shortened to “diameter zone of inhibition”) is 18 mm.
Take `CC1(C)S[C@@H]2[C@H](NC(=O)[C@H](N)c3ccccc3)C(=O)N2[C@H]1C(=O)O` [Ampicillin]: the MIC was over 46 µg/mL with Escherichia coli (setting [4]); 19 µg/mL (≈ 54.4 µM) in test [1] (setting [3]); 12 µg/mL (≈ 34.3 µM) in test [2] (Staphylococcus, read-out: MIC). Further, the Interpretation entry (in the test on Escherichia coli; in test [1]; in test [2]) was “R” throughout. The figures for the “diameter zone of inhibition” value (with Escherichia coli; in test [1]; in test [2]) were 6 mm, 11 mm and 13 mm, respectively.
`CC1(C)S[C@@H]2[C@H](NC(=O)C(C(=O)O)c3ccccc3)C(=O)N2[C@H]1C(=O)O` (stereo partly drawn) [Carbenicillin]: in test [1], the Interpretation entry is “R” and the “diameter zone of inhibition” value is given as 15 mm.
Consider `C=CC1=C(C(=O)O)N2C(=O)[C@@H](NC(=O)/C(=N\OCC(=O)O)c3csc(N)n3)[C@H]2SC1` [Cefixime], for which the MIC in test [1] (setting [3]) is over 26 µg/mL. In test [1], the Interpretation entry is reported as “R” and the “diameter zone of inhibition” value was 6 mm.
Take `CO/N=C(/C(=O)N[C@@H]1C(=O)N2C(C(=O)O)=C([C@@H]3CCCO3)CS[C@H]12)c1csc(N)n1` [Cefovecin]: the Interpretation result (with Escherichia coli; in test [2]) was “R” in each case. The “diameter zone of inhibition” value with Escherichia coli worked out at 6 mm; in test [2], 21 mm.
In the case of `CO[C@@]1(NC(=O)Cc2cccs2)C(=O)N2C(C(=O)O)=C(COC(N)=O)CS[C@@H]21` [Cefoxitin], the MIC in the test with Escherichia coli (setting [4]) was over 69 µg/mL. Besides, the Interpretation result (in the test with Escherichia coli; in test [2]) was “R” each time. The “diameter zone of inhibition” value in the test with Escherichia coli stood at 6 mm; in test [2] it was 24 mm.
Regarding `CC(C)(O/N=C(\C(=O)N[C@@H]1C(=O)N2C(C(=O)[O-])=C(C[n+]3ccccc3)CS[C@H]12)c1csc(N)n1)C(=O)O` [Ceftazidime], the MIC in test [1] (setting [3]) is 41 µg/mL (≈ 75 µM). In addition, in test [1], the Interpretation entry is “R” and the “diameter zone of inhibition” value was determined as 13 mm.
Taken in the same sequence, the figures for `CO/N=C(\C(=O)N[C@@H]1C(=O)N2C(C(=O)O)=C(CSC(=O)c3ccco3)CS[C@H]12)c1csc(N)n1` [Ceftiofur] were 3.9 µg/mL (≈ 7.45 µM), “R” and 19 mm.
`CC(=O)OCC1=C(C(=O)O)N2C(=O)[C@@H](NC(=O)Cc3cccs3)[C@H]2SC1` [Cephalothin]: the MIC with Escherichia coli (setting [4]) is over 101 µg/mL; in test [1] (setting [3]), 2.2 µg/mL (≈ 5.55 µM); in test [2] (Staphylococcus, read-out: MIC) it was 1.4 µg/mL (≈ 3.53 µM). Also, the Interpretation result (with Escherichia coli; in test [1]; in test [2]) was “R” each time. Besides, the entries for the “diameter zone of inhibition” value (with Escherichia coli; in test [1]; in test [2]) were 6 mm, 25 mm and 27 mm, respectively.
As to `O=C(N[C@H](CO)[C@H](O)c1ccc([N+](=O)[O-])cc1)C(Cl)Cl` [Chloramphenicol], the MIC in test [1] (setting [3]) was determined as 4.5 µg/mL (≈ 13.9 µM). In addition, in test [1], the Interpretation result is recorded as “S” and the “diameter zone of inhibition” value stood at 26 mm.
On to `CCC[C@@H]1C[C@@H](C(=O)N[C@@H]([C@H]2O[C@H](SC)[C@H](O)[C@@H](O)[C@H]2O)[C@H](C)Cl)N(C)C1` [Clindamycin], for which the MIC in test [1] (setting [3]) was over 10 µg/mL; in test [2] (Staphylococcus, read-out: MIC) it was over 10 µg/mL. Moreover, the Interpretation result in test [1] and in test [2] was “R” throughout. Further, the “diameter zone of inhibition” value amounted to 6 mm in test [1] and 7 mm in test [2].
For the compound `CN1CCN(c2cc3c(cc2F)c(=O)c(C(=O)O)cn3-c2ccc(F)cc2)CC1` [Difloxacin], the MIC in test [1] (setting [3]) was at most 0.07 µg/mL. Also, in test [1], the Interpretation entry is reported as “S” and the “diameter zone of inhibition” value turned out to be 30 mm.
On to `CCN1CCN(c2cc3c(cc2F)c(=O)c(C(=O)O)cn3C2CC2)CC1` [Enrofloxacin], for which the MIC in the test on Escherichia coli (setting [4]) is over 18 µg/mL; in test [1] (setting [3]) it was at most 0.099 µg/mL; in test [2] (Staphylococcus, read-out: MIC), over 19 µg/mL. For the same compound, the Interpretation result with Escherichia coli is “R”; in test [1], “S”; in test [2], “R”. Also, the “diameter zone of inhibition” value amounted to 7 mm in the test on Escherichia coli, 29 mm in test [1] and 6 mm in test [2].
Take `CNC(C)C1CCC(N)C(OC2C(N)CC(N)C(OC3OCC(C)(O)C(NC)C3O)C2O)O1` (stereo not drawn) [Gentamicin]: the MIC is 2.6 µg/mL (≈ 5.44 µM) with Escherichia coli (setting [4]); 31 µg/mL (≈ 64.9 µM) in test [1] (setting [3]); 7.9 µg/mL (≈ 16.5 µM) in test [2] (Staphylococcus, read-out: MIC). Further, the results for the Interpretation entry (in the test on Escherichia coli; in test [1]; in test [2]) were “S”, “R” and “I”, respectively. For the same compound, the “diameter zone of inhibition” value is 18 mm in the test on Escherichia coli, 9 mm in test [1] and 14 mm in test [2].
`C[C@@H](O)[C@H]1C(=O)N2C(C(=O)O)=C(SCCN=CN)C[C@H]12` [Imipenem]: the MIC in test [1] (setting [3]) is at most 0.56 µg/mL. Also, in test [1], the Interpretation entry is given as “R” and the “diameter zone of inhibition” value stood at 39 mm.
As for `CN1CCN(c2c(F)cc3c(=O)c(C(=O)O)cn4c3c2OCN4C)CC1` [Marbofloxacin], the Interpretation result with Escherichia coli was “R”; in test [1], “S”; in test [2], “R”. The entries for the “diameter zone of inhibition” value (in the test with Escherichia coli; in test [1]; in test [2]) were 6 mm, 27 mm and 6 mm, respectively.
For the compound `C[C@@H]1CN(c2c(F)c(F)c3c(=O)c(C(=O)O)cn(C4CC4)c3c2F)C[C@H](C)N1` [Orbifloxacin], the MIC in the test on Escherichia coli (setting [4]) is over 40 µg/mL; in test [1] (setting [3]) it was 0.25 µg/mL (≈ 0.632 µM); in test [2] (Staphylococcus, read-out: MIC), over 40 µg/mL. Besides, the Interpretation result was “R” in the test with Escherichia coli, “S” in test [1] and “R” in test [2]. For the same compound, the “diameter zone of inhibition” value was found to be 6 mm in the test on Escherichia coli, 27 mm in test [1] and 6 mm in test [2].
In the case of `Cc1onc(-c2ccccc2)c1C(=O)N[C@@H]1C(=O)N2[C@@H]1SC(C)(C)[C@@H]2C(=O)O` [Oxacillin], in test [1], the Interpretation result was “R” and the “diameter zone of inhibition” value turned out to be 6 mm. Moreover, in test [2] (Staphylococcus, read-out: MIC), the MIC came out at 1.8 µg/mL (≈ 4.48 µM). In test [2], the Interpretation result is “R” and the “diameter zone of inhibition” value is reported as 14 mm.
Turning to `CCN1CCN(C(=O)N[C@@H](C(=O)N[C@@H]2C(=O)N3[C@@H]2SC(C)(C)[C@@H]3C(=O)O)c2ccccc2)C(=O)C1=O` [Piperacillin], in test [1], the Interpretation result is recorded as “R” and the “diameter zone of inhibition” value is 12 mm.
`CN(C)[C@@H]1C(O)=C(C(N)=O)C(=O)[C@@]2(O)C(O)=C3C(=O)c4c(O)cccc4[C@@](C)(O)[C@H]3C[C@@H]12` [Tetracycline]: the MIC was 16 µg/mL (≈ 36 µM) in the test with Escherichia coli (setting [4]); 0.42 µg/mL (≈ 0.945 µM) in test [1] (setting [3]); over 33 µg/mL in test [2] (Staphylococcus, read-out: MIC). For the same compound, the figures for the Interpretation entry (in the test with Escherichia coli; in test [1]; in test [2]) were “R”, “S” and “R”, respectively. Moreover, the “diameter zone of inhibition” value is listed as 13 mm in the test on Escherichia coli, 31 mm in test [1] and 8 mm in test [2].
With `CC1(C)S[C@@H]2[C@H](NC(=O)[C@H](C(=O)O)c3ccsc3)C(=O)N2[C@H]1C(=O)O` [Ticarcillin], in test [1], the Interpretation result is given as “R” and the “diameter zone of inhibition” value turned out to be 14 mm.
In the case of Amoxicillin-clavulanate, in the test with Escherichia coli, the Interpretation result is “R”, the MIC is over 64 µg/mL and the “diameter zone of inhibition” value is reported as 8 mm. Besides, in test [1], the Interpretation entry is on record as “R”, the MIC was 14 µg/mL and the “diameter zone of inhibition” value worked out at 16 mm. Moreover, in test [2], the Interpretation result was “R”, the MIC is 2.9 µg/mL and the “diameter zone of inhibition” value came to 24 mm.
Regarding Polymixin-B, in test [1], the Interpretation result is reported as “R” and the “diameter zone of inhibition” value stood at 9 mm.
In the same order, the values of Titracillin-clavulanate are “R” and 15 mm.
In the case of Trimethoprim-sulfamethoxazole, in the test on Escherichia coli, the Interpretation result was “R”, the MIC is over 10 µg/mL and the “diameter zone of inhibition” value was found to be 6 mm. In test [1], the Interpretation result is “S”, the MIC entry is recorded as “<= 4.1 mcg/mL” and the “diameter zone of inhibition” value is on record as 31 mm. In test [2], the Interpretation entry is given as “R”, the MIC was over 10 µg/mL and the “diameter zone of inhibition” value worked out at 6 mm.
